In PubChem BioAssay (NCI):
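Cultured in 96-well plates, cells were exposed to test compound for 48 hours across five concentrations. TGI is the concentration that stops growth completely.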 Where a SMILES comes first, the peptide text is derived from it. The star is where a group is joined. X36 = O=C(c1ccc(-c2ccc(Cl)cc2Cl)o1)*

How the values were obtained:
Assay in all cases: NCI-60 cell line screen, 48 h
[1] = system: A549 NSCLC
[2] = system: NCI-H522 lung
[3] = system: HCT-116 colon
[4] = system: MDA-N
[5] = system: SK-MEL-28 melanoma
[6] = system: MDA-MB-435
[7] = system: HOP-92 NSCLC
[8] = system: EKVX NSCLC
[9] = system: OVCAR-4 ovarian
[10] = system: M14 melanoma
[11] = system: LOX IMVI melanoma
[12] = system: UACC-62 melanoma

Row | Structure (SMILES) | TGI [1] | TGI [2] | TGI [3] | TGI [4] | TGI [5] | TGI [6] | TGI [7] | TGI [8] | TGI [9] | TGI [10] | TGI [11] | TGI [12]
1 | C[C@H](N)C(=O)Nc1ccc(-c2nc3ccccc3s2)cc1 | 29.6 µM | 48 µM | 28.5 µM | 38.4 µM | 32.5 µM | 30.7 µM | 95.3 µM | 26.8 µM | 36.6 µM | 24.1 µM | > 100 µM | 35.4 µM
2 | CCn1nc2c3c(ncn3C(C)(C)O2)c1=O | > 100 µM | > 100 µM | > 100 µM | > 100 µM | > 100 µM | > 100 µM | > 100 µM | > 100 µM | > 100 µM | > 100 µM | > 100 µM | > 100 µM
3 | CN(NC(=O)c1cccs1)C1=NCCCN1 | > 100 µM | > 100 µM | > 100 µM | > 100 µM | > 100 µM | > 100 µM | > 100 µM | > 100 µM | > 100 µM | > 100 µM | > 100 µM | > 100 µM
4 | CC(=O)O[C@H]1C#C/C=C\C#CC[C@@H]2C(=O)N[C@@H]12 | > 100 µM | > 100 µM | > 100 µM | > 100 µM | > 100 µM | > 100 µM | 98.9 µM | > 100 µM | > 100 µM | > 100 µM | > 50.2 µM | > 100 µM
5 | C1CNCCNCCN1 | > 100 µM | > 100 µM | > 100 µM | > 100 µM | > 100 µM | > 100 µM | > 100 µM | > 100 µM | > 100 µM | > 100 µM | > 100 µM | > 100 µM
6 | O=C(NCCCCCCNCc1cccc2ccccc12)Nc1cccc2ccccc12 | > 100 µM | > 100 µM | > 100 µM | > 100 µM | > 100 µM | > 100 µM | > 100 µM | > 100 µM | > 100 µM | > 100 µM | > 100 µM | > 100 µM
7 | CN(O)C(=O)c1cccc(Cl)c1 | > 100 µM | > 100 µM | > 100 µM | > 100 µM | > 100 µM | > 100 µM | > 100 µM | > 100 µM | > 100 µM | > 100 µM | > 100 µM | > 100 µM
8 | O=c1c2ncn(COCCCl)c2n(-c2ccccc2)c(=S)n1-c1ccccc1 | > 100 µM | > 100 µM | > 100 µM | > 100 µM | > 100 µM | > 100 µM | > 100 µM | > 100 µM | > 100 µM | > 100 µM | > 100 µM | > 100 µM
9 | CCC1(C(=O)OC(C)(C)C)OC12C(C)CCCC2C (stereo not given) | > 100 µM | > 100 µM | > 100 µM | > 100 µM | > 100 µM | > 100 µM | 85.9 µM | > 100 µM | > 100 µM | > 100 µM | 96.1 µM | > 100 µM
10 | C=C1C(=O)CC2C(=O)C(C)(O)CC/C=C(\C)C(=O)CC12 (stereo not given) | > 100 µM | 17.1 µM | 23 µM | 37.1 µM | > 55.6 µM | > 55.7 µM | > 57.3 µM | 53.9 µM | > 58.2 µM | 31 µM | 35.4 µM | 91.8 µM
11 | COC(=O)C1=CC(=O)OC1(OO)c1ccccc1 (stereo not given) | > 100 µM | > 100 µM | > 100 µM | > 100 µM | > 100 µM | > 100 µM | > 100 µM | > 100 µM | > 100 µM | > 100 µM | > 100 µM | > 100 µM
12 | CC(=O)O[C@H]1CC[C@@]2(C)C(=CC[C@H]3[C@@H]4C[C@H](N5CCCC5)[C@H](OC(C)=O)[C@@]4(C)CC[C@@H]32)C1 | > 100 µM | > 100 µM | > 100 µM | > 84.4 µM | > 100 µM | 82.4 µM | > 100 µM | > 100 µM | > 100 µM | 33.9 µM | > 100 µM | > 100 µM
13 | Cc1ccc2c(=O)cc(-c3cccs3)[nH]c2n1 | > 100 µM | > 47.4 µM | > 100 µM | 3.78 µM | > 100 µM | 5.65 µM | > 100 µM | > 100 µM | > 100 µM | > 100 µM | > 100 µM | > 100 µM
14 | Cc1ccc2c(c1)[nH]c1cc(C(F)(F)F)ccc1[p+]2=O (stereo not given) | > 100 µM | > 100 µM | > 100 µM | > 100 µM | > 100 µM | > 100 µM | 54.5 µM | 22.2 µM | 79.2 µM | > 100 µM | > 100 µM | 54.9 µM
15 | CCC(C)C(NC(=O)CNC(=O)C(Cc1ccccc1)NC(=O)C1CCCN1C(=O)c1ccc(-c2ccc(Cl)cc2Cl)o1)C(=O)OC (stereo not given) (X36-PFGI-OMe; configuration not given here) | > 100 µM | > 100 µM | > 100 µM | > 100 µM | > 100 µM | > 100 µM | 41.9 µM | 89.9 µM | > 100 µM | > 100 µM | > 100 µM | > 100 µM
